{"source": "patent US10617736B2", "about": "“Method for modulating insulin-independent glucose transport using teneurin C-terminal associated peptide (TCAP)” (priority 2014, dated 2020)", "key": {"[1]": {"assay": "Uptake and clearance of TCAP-1 in plasma after IV or SC injection (TCAP ELISA)", "type": "in vivo, rat", "conditions": "for half-life: rat, in vivo", "method": "Male Wistar rats weighing 400-450 g were obtained from Charles River Laboratories (Montreal, Canada). Rats were singly-housed in standard Plexiglas shoebox cages under standard laboratory conditions, (12 h light:dark cycle, lights on at 0700) with food and water available ad libitum. Testing took place between 0900 and 1200 hours. Rats were given one week to acclimatize to the laboratory before surgery. Rats were anesthetized with isoflurane (2-3% in 100% O2) and a catheter was implanted into the jugular vein.\nThe K37 biotinylated TCAP was diluted into 200 ul physiological saline to contain 10.5 ug for 5 nM/kg dose and 52.5 ug for 25 nM/kg dose. The rats weighed 400-450 g. 200 ul of peptide containing solution was delivered through the cannula, different syringe containing saline was connected and 200 ul of saline was delivered to push the peptide into the bloodstream. The third syringe containing the heparin solution was used to fill the line with the lock, 150-200 ul. After 5 min, the lock solution was aspirated into the syringe, and also about 150 ul of the blood were aspirated and disposed off in case of the local contamination with high peptide concentrations. 200 ul of the blood was sampled in a fresh syringe, line flushed with saline first (200 ul) and heparin saline next (150-200 ul).\n(§1) Rats were gently restrained, cannula clamped and unplugged, 1 ml syringe with blunt needle attached to the end of the polyethylene 50 line and the lock solution containing heparin 50-100 U/ml was removed. The line was clamped and a new syringe with a blunt needle attached for withdrawing about 200 ul blood. The line was clamped and syringe removed to recover the blood. This blood sample was used to determine a baseline level of activity. All blood samples were incubated at a room temperature for 10-20 min and centrifuged at 3000 rpm for 5 min to recover the serum. The serum was frozen on dry ice and kept at −80° C. until the assay.\nas §1, with “K37 TCAP was biotin labeled according to the biotinylation method above. Rats” for “Rats”\nFor IV administration, rats were gently restrained during the injection procedure. The IV cannula was unplugged and the lock solution (150-200 μl of 50-100 U/ml of heparin, Sigma Scientific) was removed. To obtain a baseline level of activity, 200 μl of blood was withdrawn prior to injection. 200 μl of TCAP-containing solution was delivered through the cannula, followed by 200 μl of saline to push the TCAP solution through the cannula. 150-200 μl of lock solution was injected to fill the catheter. For subcutaneous (SC) administration, rats were gently restrained and injected under the skin with 200 μl of TCAP-1-containing solution with a 23 gauge needle\nBlood samples were obtained from the jugular catheter. Rats were gently restrained, and the IV cannula was unplugged. The lock solution was aspirated along with 150 μl of blood. This mixture was discarded in case of local contamination with high peptide concentrations. A sample of200 μl of blood was obtained in a fresh syringe. The catheter was then flushed with 200 μl of saline and then filled with 150-200 μl of lock solution. Lateral tail vein blood samples were obtained from lightly restrained rats whereby 200 μl of blood was obtained using a 23-gauge needle. A final bleed was achieved via cardiac puncture. […]"}, "[2]": {"system": "male GK Wistar rats", "assay": "Haematology assays in Goto-Kakizaki rats", "type": "in vivo, rat", "method": "(§2) Whole blood samples were collected into plastic microcentrifuge tubes with EDTA-coated capillary tubes. A minimum sample volume of 20 μL was required for the analyses by the Toronto Centre for Phenogenomics (Mount Sinai Hospital, Toronto) using the Hemavet 950Fs Hematology Analyzer. From the whole blood samples, serum was separated from the cells and fibrin by centrifuging the collection tubes for five minutes at 7000 g at 25° C. Afterwards, immediately following collection of serum, the samples were stored and maintained at a freezing temperature of −80° C.\n(§3) Haematology assays were performed on physiological normal rat serum and from Type II Diabetic GK rats obtained at the end of the in vivo studies noted herein in which TCAP-1 was administered to the normal rats and plasma glucose levels were monitored over the course of 1-2 weeks. […] Results are illustrated in FIGS. 6A to 6L."}, "[3]": {"system": "male Wistar rats", "assay": "Haematology assays in normal Wistar rats", "type": "in vivo, rat", "method": "as §2, §3"}, "[4]": {"system": "mHypoE-38 neurons", "assay": "3H-2-deoxyglucose uptake in mHypoE-38 hypothalamic neurons", "type": "cell-based, mouse", "method": "The effect of TCAP-1 on glucose uptake in brain cells was examined in immortalized […] hypothalamic cells. Immortalized mHypoE-38 hypothalamic embryonic mouse neurons (gift from Dr. Denise Belsham, University of Toronto) were grown in Dulbecco's Modified Eagle Medium (DMEM) containing 4500 mg/L D-glucose, L-glutamine, and 25 mM HEPES buffer, without sodium pyruvate or phenol red (Gibco, Cat. No. 21063029), supplemented with 5% heat-inactivated fetal bovine serum (FBS), 100 U/ml penicillin and 100 μg/ml streptomycin. Cells were maintained at 60-70% confluency at 37° C. in a humidified CO2 incubator. To passage, cells were washed once in sterile PBS, trypsinized and seeded at a density of 100,000 cells per 3.5 cm plate and allowed to grow for 2-3 days. 24 hours prior to experimentation, medium was changed. mHypoE-38 hypothalamic cells were grown in 6-well tissue culture dishes (Corning Incorporated, Cat. No. 3516) at a seeding density of200 000 cells/9.5 cm^2 well in a 37° C. normoxic incubator. Cultures were grown for 36 hours to 85% confluence prior to experimentation. At day 3 post-plating, cells were washed twice with Locke's buffer (154 mM NaCl, 5.6 mM KCl, 2.3 mM CaCl2, 3.6 mM NaHCO3, 5 mM HEPES) without serum and glucose. The culture was incubated in the Locke's buffer for 1 hour at 37° C. followed by exposure to 100 nM insulin, 100 nM TCAP-1, 100 nM SC-TCAP-1, or saline. KCl (40 mM) and […] (0.5 μCi/ml) were added to culture 5 minutes before termination of treatment exposure. Uptake of ^3H-2-deoxyglucose was stopped immediately after 5 minutes with three washes of ice-cold 0.9% NaCl solution. Parallel experiments with 5 μM of cytochalasin B were performed to ensure that glucose uptake was of transporter-inhibitable transport. The cells were digested with 1 ml of 0.05 N NaOH at 0, 15, 30, 45, 60, 90 and 120 minutes after treatment. Cell lysates were used for determination of radioactivity by a beta liquid scintillation counter. Experiments were repeated three times with 3 wells pear condition per replication. […] hypothalamic cells were cultured as above and treated with 100 nM insulin, 100 nM TCAP-1 or saline, exposed to 5.6 mM or 40 mM KCl and 0.5 μCi/well 3H-2-deoxy glucose, and subsequently lysed with 50 mM NaOH. Radioactivity in cell lysates was counted using a liquid scintillation counter."}, "[5]": {"system": "C2C12 myocytes", "assay": "3H-2-deoxyglucose uptake in C2C12 myocytes", "type": "cell-based, mouse", "conditions": "100 nM, over two hours (FIG. 20)", "method": "The effect of TCAP-1 on glucose uptake in muscle cells was examined in a C2C12 mouse myocyte cell line. C2C12 myocytes were cultured in Dulbecco's Modified Eagle Medium (DMEM) containing 4500 mg/L D-glucose, L-glutamine, and 25 mM HEPES buffer, without sodium pyruvate or phenol red (Gibco, Cat. No. 21063029), supplemented with 20% heat-inactivated fetal bovine serum (FBS), 100 U/ml penicillin and 100 μg/ml streptomycin. Cells were maintained at 80% confluency at 37° C. in a humidified CO2 incubator. To initiate differentiation, myocytes were further cultured in DMEM supplemented with 10% heat-inactivated horse serum (HS), transferrin, 100 U/ml penicillin and 100 μg/ml streptomycin. Myocytes were allowed to differentiate into multi-nucleated myotubes for 5 days before experimentation. 24 hours prior to experimentation, medium was changed. At day 5 of differentiation, cells were deprived of serum and incubated in Minimal Essential Medium containing 1000 mg/L D-glucose, L-glutamine, without nucleosides (Gibco, Cat. No. 12561049) for 5 hours at 37° C. prior to incubation with insulin, TCAP-1, or saline. Cells were washed twice in glucose-free HEPES-buffered solution (HBS), containing 140 mM NaCl, 20 mM HEPES, 5 mM KCl, 2.5 mM MgSO4 and 1 mM CaCl2, followed by determinations of transport of 3H-2-deoxyglucose for 10 minutes at 0.5 μCi/ml at room temperature. Uptake of 3H-2-deoxyglucose was stopped immediately after 10 minutes with three washes of ice-cold 0.9% NaCl solution. Parallel experiments with 5 μM of cytochalasin B were done to ensure that glucose uptake was of transporter-inhibitable transport The cells were digested with 1 ml of 0.05 N NaOH. Cell lysates were used for determination of radioactivity by a beta liquid scintillation counter. Experiments were repeated three times with 3 wells per condition per replication. […] Cell lysates were used for determination of radioactivity by a beta liquid scintillation counter. […]"}}, "note": "Where two headings read alike, the source gives them in different places. Square brackets hold non-standard residues; d marks the D form. Ends that are not written are not given here. pGlu = O=C1CC[C@@H](C(=O)O)N1"}
{"substance": "QQLLGTGRVQGYDGYFVLSVEQYLELSDSANNIHFMRQSEI-NH2 (C-terminus assumed) [TCAP-1]", "values": [{"measurement": "time of peak in plasma", "setting": "[1]; IV administered, rat plasma", "result": "≤ 1", "unit": "min"}, {"measurement": "time until cleared from plasma", "setting": "[1]; IV-treated animals", "result": "about 100 min"}, {"measurement": "time to 50% loss from plasma", "setting": "[1]; SC administered, rat plasma", "result": "about 90 min"}, {"measurement": "time until cleared from plasma", "setting": "[1]; SC treated animals, highest dose of 125 ng/kg", "result": "about 170 min"}, {"measurement": "half-life", "setting": "[1]; iv, highest dose, read-out: plasma clearance half-life", "result": "16 ± 4", "unit": "min"}, {"measurement": "half-life", "setting": "[1]; iv, lowest dose, read-out: plasma clearance half-life", "result": "4 ± 1", "unit": "min"}, {"measurement": "half-life", "setting": "[1]; iv, mid dose, read-out: plasma clearance half-life", "result": "7 ± 2", "unit": "min"}, {"measurement": "half-life", "setting": "[1]; sc, highest dose, read-out: clearance time (plasma clearance half-life)", "result": "36 ± 20", "unit": "min"}, {"measurement": "half-life", "setting": "[1]; sc, lowest dose, read-out: clearance time (plasma clearance half-life)", "result": "40 ± 4", "unit": "min"}, {"measurement": "half-life", "setting": "[1]; sc, mid dose, read-out: clearance time (plasma clearance half-life)", "result": "50 ± 11", "unit": "min"}, {"measurement": "haemoglobin concentrations", "setting": "[2]; 10 nmole/kg (FIG. 6G)", "result": "No significant results were observed"}, {"measurement": "hematocrit counts", "setting": "[2]; 10 nmole/kg (FIG. 6H)", "result": "No significant results were observed"}, {"measurement": "platelet counts", "setting": "[2]; 10 nmole/kg (FIG. 6I)", "result": "No significant results were observed"}, {"measurement": "red blood cell counts", "setting": "[2]; 10 nmole/kg (FIG. 6J)", "result": "No significant results were observed"}, {"measurement": "levels of white blood cells, neutrophils or lymphocytes", "setting": "[2]; 10 nmole/kg (FIG. 6K)", "result": "No significant results were observed"}, {"measurement": "monocytes, basophils or eosinophils", "setting": "[2]; 10 nmole/kg (FIG. 6L)", "result": "No significant results were observed"}, {"measurement": "white blood cells, neutrophils and lymphocytes, trend", "setting": "[2]; results called variable and inconclusive", "result": "appears to be a decrease in white blood cells, neutrophils and lymphocytes"}, {"measurement": "haemoglobin concentrations", "setting": "[3]; Wistar rats, 1 or 10 nmole/kg (FIG. 6A)", "result": "No significant results were observed"}, {"measurement": "hematocrit counts", "setting": "[3]; Wistar rats, 1 or 10 nmole/kg (FIG. 6B)", "result": "No significant results were observed"}, {"measurement": "platelet counts", "setting": "[3]; Wistar rats, 1 or 10 nmole/kg (FIG. 6C)", "result": "No significant results were observed"}, {"measurement": "red blood cell counts", "setting": "[3]; Wistar rats, 1 or 10 nmole/kg (FIG. 6D)", "result": "No significant results were observed"}, {"measurement": "levels of white blood cells, neutrophils or lymphocytes", "setting": "[3]; Wistar rats, 1 or 10 nmole/kg (FIG. 6E)", "result": "No significant results were observed"}, {"measurement": "monocytes, basophils or eosinophils", "setting": "[3]; Wistar rats, 1 or 10 nmole/kg (FIG. 6F)", "result": "No significant results were observed"}, {"measurement": "clot formation in blood samples", "setting": "[3]; observation on collected blood samples", "result": "clots formed more frequently in the blood samples of TCAP-1 treated rats"}]}
{"substance": "pETHSLELRVSLIGEVQQFIGYENQSDQNYGLLAYFDRVGMS-NH2 ([pGlu]THSLELRVSLIGEVQQFIGYENQSDQNYGLLAYFDRVGMS-NH2) [scTCAP-1, scrambled TCAP control with same amino acid composition but different order, pyroglutamic acid in first position]", "values": [{"measurement": "3H-2-deoxyglucose uptake value relative to baseline", "setting": "[4]; 100 nM, 40 mM KCl, 60 minutes", "result": "61.523±7.545", "unit": "%"}, {"measurement": "3H-2-deoxyglucose uptake relative to baseline", "setting": "[4]; 100 nM, 40 mM KCl, 90 minutes", "result": "68.020±4.812", "unit": "%"}, {"measurement": "3HDG uptake in whole cells over time", "setting": "[4]; Hypo-E38 cells (FIG. 11C-E)", "result": "no significant glucose uptake"}, {"measurement": "3H-2-deoxyglucose uptake signal", "setting": "[5]", "result": "lack of positive signal"}]}
